Test results reported in patent publication US11716992B2, “5A5B6C tricyclic spirolactone derivative, preparation method therefor and use thereof” (NANKAI UNIVERSITY, priority 2017, dated 2023).
“And” between values parts separate entries of the source, which are not always exact repeats. Identical values can stand only once. Like-named read-outs stand apart in the source and are kept apart here.

What was measured:
Caenorhabditis elegans = assay: Insecticidal activity against Caenorhabditis elegans; format: in vivo; conditions: Caenorhabditis elegans, 100 μg/mL; read-out: insecticidal activity, Caenorhabditis elegans
wheat Gibberella zeae = assay: microbe, parasite or virus in culture; format: cell-based; conditions: Fusarium graminearum, read-out: fungicidal activity (growth inhibition rate), GZ, 50 μg/mL
[1] = tested on: Helicoverpa armigera (Hübner); assay: Insecticidal activity against Helicoverpa armigera (Hübner); format: in vivo; conditions: Helicoverpa armigera; 100 μg/mL; read-out: insecticidal activity, Helicoverpa armigera (Hübner)
[2] = tested on: Apis mellifera ligustica Spin; conditions: for Death number after 24 h / Death number after 48 h: per replicate of 10 bees
[3] = tested on: Phytophthora infestans (Mont.) de Bary; assay: microbe, parasite or virus in culture; format: cell-based; conditions: Phytophthora infestans, read-out: fungicidal activity (growth inhibition rate), PI, 50 μg/mL
[4] = tested on: Mythimna separate (Walker); assay: Insecticidal activity against Mythimna separate (Walker); format: in vivo; conditions: Mythimna, 100 μg/mL; read-out: insecticidal activity, Mythimna separate (Walker)
Pellicularia sasakii = assay: Fungicidal activity, fungicide growth rate method, PS; format: cell-based; conditions: 50 μg/mL; read-out: fungicidal activity (growth inhibition rate), PS
Alternaria solani = assay: Fungicidal activity, fungicide growth rate method, AS; format: cell-based; conditions: Alternaria solani, 50 μg/mL; read-out: fungicidal activity (growth inhibition rate), AS
Tobacco Mosaic Virus = assay: Anti-TMV inactivation activity on tobacco plants; format: in vivo; parameters: concentration or dose not given beside the values; conditions: compound mixed with TMV solution 30 minutes, lesions checked three days later
Rhizoctonia cerealis = assay: Fungicidal activity, fungicide growth rate method, RC; format: cell-based; conditions: Ceratobasidium cereale, 50 μg/mL; read-out: fungicidal activity (growth inhibition rate), RC
Ostrinia furnacalis = assay: Insecticidal activity against Ostrinia furnacalis; format: in vivo; conditions: Ostrinia furnacalis; 100 μg/mL; read-out: insecticidal activity, Ostrinia furnacalis
Botrytis cinerea = assay: Fungicidal activity, fungicide growth rate method, BC; format: cell-based; conditions: Botrytis cinerea, 50 μg/mL; read-out: fungicidal activity (growth inhibition rate), BC
Cercospora arachidicola = assay: Fungicidal activity, fungicide growth rate method, CA; format: cell-based; conditions: Mycosphaerella arachidis, 50 μg/mL; read-out: fungicidal activity (growth inhibition rate), CA
Physalospora piricola = assay: Fungicidal activity, fungicide growth rate method, PP; format: cell-based; conditions: 50 μg/mL; read-out: fungicidal activity (growth inhibition rate), PP
Sclerotinia sclerotiorum = assay: Fungicidal activity, fungicide growth rate method, SS; format: cell-based; conditions: Sclerotinia sclerotiorum, 50 μg/mL

SMILES | pest or weed control at 100 µg/mL (Caenorhabditis elegans) [%] | inhibition at 50 µg/mL (wheat Gibberella zeae) [%] | pest or weed control at 100 µg/mL [1] [%] | inhibition at 50 µg/mL [3] [%] | pest or weed control at 100 µg/mL [4] [%] | inhibition at 50 µg/mL (Pellicularia sasakii) [%] | inhibition at 50 µg/mL (Alternaria solani) [%] | TMV inactivation (anti-TMV activity) (Tobacco Mosaic Virus) [%] | inhibition at 50 µg/mL (Rhizoctonia cerealis) [%] | pest or weed control at 100 µg/mL (Ostrinia furnacalis) [%] | inhibition at 50 µg/mL (Botrytis cinerea) [%] | inhibition at 50 µg/mL (Cercospora arachidicola) [%] | inhibition at 50 µg/mL (Physalospora piricola) [%] | further results
C=CC[C@@H]1C[C@]2(O)CCO[C@@]23C[C@H](O)CC[C@H]13 [Zyj07-32] | 20 | 33 | 0 | > 60 | 0 | 16 | > 60 | 9 | 39 | 0 | 23 | > 50 |  | Death rate after 48 h (%) ([2]; dosage 2.73 μg a.i./bee): 10.0%; Death number after 24 h ([2]; dosage 2.73 μg a.i./bee): 0 and 2; Death number after 48 h ([2]; dosage 2.73 μg a.i./bee): 0 and 2; Death rate after 48 h (%) ([2]; dosage 10.0 μg a.i./bee): 5.0%; Death number after 24 h ([2]; dosage 10.0 μg a.i./bee): 0; Death number after 48 h ([2]; dosage 10.0 μg a.i./bee): 1 and 0
C=CC[C@@H]1C[C@@]2(OC(C)=O)C[C@@H](CC=C)[C@H]3C[C@H]4O[C@H]4C[C@@]32O1 [Zyj07-67-1] |  | 23 | 10 | 32 | 20 | 18 | 0 | 7 | 0 | 5 | > 50 | 14 | 31 | 
CC(=O)O[C@@]12C[C@H]3CC=CC[C@@]1(O3)[C@@H]1CC=CC[C@@H]1C2 [Zyj07-41-2] | 12 | 20 | 15 | 25 | 10 | 41 | 14 | 18 |  | 0 | 34 | > 50 | > 50 | Death rate after 48 h (%) ([2]; dosage 8.70 μg a.i./bee): 0%; Death number after 24 h ([2]; dosage 8.70 μg a.i./bee): 0; Death number after 48 h ([2]; dosage 8.70 μg a.i./bee): 0; Death rate after 48 h (%) ([2]; dosage 13.5 μg a.i./bee): 0%; Death number after 24 h ([2]; dosage 13.5 μg a.i./bee): 0; Death number after 48 h ([2]; dosage 13.5 μg a.i./bee): 0
O=C1C[C@@]2(O)CC[C@H]3CC=CC[C@@]32O1 [Zyj07-96] |  | > 50 | 15 | 24 | > 30 | > 60 | > 60 | 23 |  | 10 | 25 |  |  | inhibition at 50 µg/mL (Sclerotinia sclerotiorum): > 50%; Death rate after 48 h (%) ([2]; dosage 9.54 μg a.i./bee): 0%; Death number after 24 h ([2]; dosage 9.54 μg a.i./bee): 0; Death number after 48 h ([2]; dosage 9.54 μg a.i./bee): 0; Death rate after 48 h (%) ([2]; dosage 15.5 μg a.i./bee): 0%; Death number after 24 h ([2]; dosage 15.5 μg a.i./bee): 0; Death number after 48 h ([2]; dosage 15.5 μg a.i./bee): 0
C=CC[C@@H]1C[C@]2(O)CC(=O)O[C@@]23C[C@H]2O[C@H]2C[C@H]13 [Zyj07-13] | 20 | 14 |  | 0 |  | 6 | 10 | 11 | 43 |  | > 50 | 8 | 30 | 
